Data reported in ChEMBL document CHEMBL4813949, “Hypothemycin-Type Resorcylic Acid Lactones with Immunosuppressive Activities from a Podospora sp” (J Nat Prod, 2021).

Test system: Splenocyte
Assay: Cytotoxicity against BALB/c mouse splenocytes at 50 uM incubated for 48 hrs by MTT assay
Format: cell-based
Conditions: not given

| SMILES | Activity |
| --- | --- |
| COc1cc(O)c2c(c1)/C=C/C[C@H](O)[C@H](O)C(=O)C[C@H](O)C[C@H](C)OC2=O | Non-Toxic |
| COc1cc(O)c2c(c1)/C=C/C[C@H](O)[C@@H](O)[C@@H](O)CCC[C@H](C)OC2=O | Non-Toxic |
| COc1cc(O)c2c(c1)/C=C/CCC(=O)[C@H](O)CCC[C@H](C)OC2=O | Non-Toxic |
| COc1cc(O)c2c(c1)/C=C/C[C@H](O)[C@@H](O)C(=O)CCC[C@H](C)OC2=O | Non-Toxic |
| COc1cc(O)c2c(c1)/C=C/CCC(=O)[C@@H](O)CCC[C@H](C)OC2=O | Non-Toxic |
| COc1cc(O)c2c(c1)/C=C/CC[C@H](O)[C@H](O)CCC[C@H](C)OC2=O | Non-Toxic |
| COc1cc(O)c2c(c1)/C=C/C[C@@H](O)[C@@H](O)C(=O)CCC[C@H](C)OC2=O | Non-Toxic |
| C[C@H](O)C/C=C/[C@@H]1CCCC(=O)Cc2cc(O)cc(O)c2C(=O)O1 | Non-Toxic |
| COc1cc(O)c2c(c1)/C=C/C[C@H](O)C(=O)CCCC[C@H](C)OC2=O | Non-Toxic |

Test system: T-cell
Assay: Induction of apoptosis in ConA-induced mouse splenic T cells assessed as increase in Bax protein expression after 48 hrs by Western blotting analysis
Format: functional, cell-based
Conditions: dose 5-20 µM

| SMILES | Activity |
| --- | --- |
| C[C@H](O)C/C=C/[C@@H]1CCCC(=O)Cc2cc(O)cc(O)c2C(=O)O1 | Dose-Dependent Effect |

Test system: T-cell
Assay: Induction of apoptosis in ConA-induced mouse splenic T cells assessed as decrease in Mcl-1 protein expression after 48 hrs by Western blotting analysis
Format: functional, cell-based
Conditions: dose 5-20 µM

| SMILES | Activity |
| --- | --- |
| C[C@H](O)C/C=C/[C@@H]1CCCC(=O)Cc2cc(O)cc(O)c2C(=O)O1 | Dose-Dependent Effect |

Test system: T-cell
Assay: Induction of apoptosis in ConA-induced mouse splenic T cells assessed as downregulation of JNK phosphorylation after 48 hrs by Western blotting analysis
Format: functional, cell-based
Conditions: dose 5-20 µM

| SMILES | Activity |
| --- | --- |
| C[C@H](O)C/C=C/[C@@H]1CCCC(=O)Cc2cc(O)cc(O)c2C(=O)O1 | Dose-Dependent Effect |

Test system: T-cell
Assay: Induction of apoptosis in ConA-induced mouse splenic T cells assessed as late apoptotic cells at 10 uM after 48 hrs by Annexin V-FITC/propidium iodide staining based flow cytometry analysis (reference value: 0.4 %)
Format: functional
Conditions: not given

| SMILES | Activity [%] |
| --- | --- |
| C[C@H](O)C/C=C/[C@@H]1CCCC(=O)Cc2cc(O)cc(O)c2C(=O)O1 | 37.2 |

Test system: T-cell
Assay: Induction of apoptosis in ConA-induced mouse splenic T cells assessed as increase in cleaved caspase 3 protein expression after 48 hrs by Western blotting analysis
Format: functional, cell-based
Conditions: dose 5-20 µM

| SMILES | Activity |
| --- | --- |
| C[C@H](O)C/C=C/[C@@H]1CCCC(=O)Cc2cc(O)cc(O)c2C(=O)O1 | Dose-Dependent Effect |

Test system: T-cell
Assay: Induction of apoptosis in ConA-induced mouse splenic T cells assessed as late apoptotic cells at 20 uM after 48 hrs by Annexin V-FITC/propidium iodide staining based flow cytometry analysis (reference value: 0.4 %)
Format: functional
Conditions: not given

| SMILES | Activity [%] |
| --- | --- |
| C[C@H](O)C/C=C/[C@@H]1CCCC(=O)Cc2cc(O)cc(O)c2C(=O)O1 | 55.8 |

Test system: T-cell
Assay: Induction of apoptosis in ConA-induced mouse splenic T cells assessed as early apoptotic cells at 20 uM after 48 hrs by Annexin V-FITC/propidium iodide staining based flow cytometry analysis (reference value: 6.9 %)
Format: functional
Conditions: not given

| SMILES | Activity [%] |
| --- | --- |
| C[C@H](O)C/C=C/[C@@H]1CCCC(=O)Cc2cc(O)cc(O)c2C(=O)O1 | 8.9 |

Test system: Splenocyte
Assay: Immunosuppressive activity in BALB/c mouse splenocytes assessed as inhibition of concanavalin A-stimulated T-cell proliferation incubated for 48 hrs by MTT assay
Format: functional, cell-based
Conditions: not given

| SMILES | IC50 [µM] |
| --- | --- |
| COc1cc(O)c2c(c1)/C=C/C[C@H](O)[C@H](O)C(=O)C[C@H](O)C[C@H](C)OC2=O | 18.8 |
| COc1cc(O)c2c(c1)/C=C/C[C@H](O)[C@@H](O)[C@@H](O)CCC[C@H](C)OC2=O | > 50 |
| COc1cc(O)c2c(c1)/C=C/CCC(=O)[C@H](O)CCC[C@H](C)OC2=O | 25.1 |
| COc1cc(O)c2c(c1)/C=C/C[C@H](O)[C@@H](O)C(=O)CCC[C@H](C)OC2=O | > 50 |
| COc1cc(O)c2c(c1)/C=C/CCC(=O)[C@@H](O)CCC[C@H](C)OC2=O | > 50 |
| COc1cc(O)c2c(c1)/C=C/CC[C@H](O)[C@H](O)CCC[C@H](C)OC2=O | > 50 |
| COc1cc(O)c2c(c1)/C=C/C[C@@H](O)[C@@H](O)C(=O)CCC[C@H](C)OC2=O | 16.5 |
| C[C@H](O)C/C=C/[C@@H]1CCCC(=O)Cc2cc(O)cc(O)c2C(=O)O1 | 10.6 |
| COc1cc(O)c2c(c1)/C=C/C[C@H](O)C(=O)CCCC[C@H](C)OC2=O | > 50 |

Test system: T-cell
Assay: Induction of apoptosis in ConA-induced mouse splenic T cells assessed as increase in cytochrome C protein expression after 48 hrs by Western blotting analysis
Format: functional, cell-based
Conditions: dose 5-20 µM

| SMILES | Activity |
| --- | --- |
| C[C@H](O)C/C=C/[C@@H]1CCCC(=O)Cc2cc(O)cc(O)c2C(=O)O1 | Dose-Dependent Effect |

Test system: T-cell
Assay: Induction of apoptosis in ConA-induced mouse splenic T cells assessed as decrease in Bcl-2 protein expression after 48 hrs by Western blotting analysis
Format: functional, cell-based
Conditions: dose 5-20 µM

| SMILES | Activity |
| --- | --- |
| C[C@H](O)C/C=C/[C@@H]1CCCC(=O)Cc2cc(O)cc(O)c2C(=O)O1 | Dose-Dependent Effect |

Test system: T-cell
Assay: Induction of apoptosis in ConA-induced mouse splenic T cells assessed as late apoptotic cells at 5 uM after 48 hrs by Annexin V-FITC/propidium iodide staining based flow cytometry analysis (reference value: 0.4 %)
Format: functional
Conditions: not given

| SMILES | Activity [%] |
| --- | --- |
| C[C@H](O)C/C=C/[C@@H]1CCCC(=O)Cc2cc(O)cc(O)c2C(=O)O1 | 26.2 |

Test system: T-cell
Assay: Induction of apoptosis in ConA-induced mouse splenic T cells assessed as increase in cleaved caspase 9 protein expression after 48 hrs by Western blotting analysis
Format: functional, cell-based
Conditions: dose 5-20 µM

| SMILES | Activity |
| --- | --- |
| C[C@H](O)C/C=C/[C@@H]1CCCC(=O)Cc2cc(O)cc(O)c2C(=O)O1 | Dose-Dependent Effect |

Test system: Splenocyte
Assay: Immunosuppressive activity in BALB/c mouse splenocytes assessed as inhibition of LPS-stimulated B-cell proliferation incubated for 48 hrs by MTT assay
Format: functional, cell-based
Conditions: not given

| SMILES | IC50 [µM] |
| --- | --- |
| COc1c(C)c2c(c(O)c1C/C=C(\C)CCC(=O)OCCN1CCOCC1)C(=O)OC2 [MYCOPHENOLATE MOFETIL] | 0.5 |
| COc1cc(O)c2c(c1)/C=C/C[C@H](O)[C@H](O)C(=O)C[C@H](O)C[C@H](C)OC2=O | 21.9 |
| COc1cc(O)c2c(c1)/C=C/C[C@H](O)[C@@H](O)[C@@H](O)CCC[C@H](C)OC2=O | > 50 |
| COc1cc(O)c2c(c1)/C=C/CCC(=O)[C@H](O)CCC[C@H](C)OC2=O | 27.7 |
| COc1cc(O)c2c(c1)/C=C/C[C@H](O)[C@@H](O)C(=O)CCC[C@H](C)OC2=O | > 50 |
| COc1cc(O)c2c(c1)/C=C/CCC(=O)[C@@H](O)CCC[C@H](C)OC2=O | > 50 |
| COc1cc(O)c2c(c1)/C=C/CC[C@H](O)[C@H](O)CCC[C@H](C)OC2=O | > 50 |
| COc1cc(O)c2c(c1)/C=C/C[C@@H](O)[C@@H](O)C(=O)CCC[C@H](C)OC2=O | 14.6 |
| C[C@H](O)C/C=C/[C@@H]1CCCC(=O)Cc2cc(O)cc(O)c2C(=O)O1 | 10.3 |
| COc1cc(O)c2c(c1)/C=C/C[C@H](O)C(=O)CCCC[C@H](C)OC2=O | > 50 |

Test system: T-cell
Assay: Induction of apoptosis in ConA-induced mouse splenic T cells assessed as early apoptotic cells at 5 uM after 48 hrs by Annexin V-FITC/propidium iodide staining based flow cytometry analysis (reference value: 6.9 %)
Format: functional
Conditions: not given

| SMILES | Activity [%] |
| --- | --- |
| C[C@H](O)C/C=C/[C@@H]1CCCC(=O)Cc2cc(O)cc(O)c2C(=O)O1 | 12.1 |

Test system: T-cell
Assay: Induction of apoptosis in ConA-induced mouse splenic T cells assessed as decrease in Bcl-xL protein expression after 48 hrs by Western blotting analysis
Format: functional, cell-based
Conditions: dose 5-20 µM

| SMILES | Activity |
| --- | --- |
| C[C@H](O)C/C=C/[C@@H]1CCCC(=O)Cc2cc(O)cc(O)c2C(=O)O1 | Dose-Dependent Effect |

Test system: T-cell
Assay: Induction of apoptosis in ConA-induced mouse splenic T cells assessed as early apoptotic cells at 10 uM after 48 hrs by Annexin V-FITC/propidium iodide staining based flow cytometry analysis (reference value: 6.9 %)
Format: functional
Conditions: not given

| SMILES | Activity [%] |
| --- | --- |
| C[C@H](O)C/C=C/[C@@H]1CCCC(=O)Cc2cc(O)cc(O)c2C(=O)O1 | 11 |
